Patent US20230149554A1, “TARGETED DEGRADATION OF THE ONCOGENIC MICRORNA 17-92 CLUSTER BY STRUCTURE-TARGETING LIGANDS” (University of Florida Research Foundation, Incorporated, priority 2020, published 2023)

How the values were obtained:
plasmid DNA = conditions: 100 nM
Experimental: In vitro Bleomycin cleavage of DNA plasmid. […] Another equivalent of (NH4)2Fe(SO4)2.6H2O was added after 30 min and 60 min respectively. The mixture was loaded on 1% agarose with 6× loading dye and stained with ethidium bromide. Bands were quantified using ImageJ image analysis software.

pri-miR-17-92 cluster [1] = experiment: RT-qPCR of pri-, pre- and mature miRNAs in DU-145 cells; assay type: cell-based, human; conditions: DU-145, treatment with 7
Experimental: RT-qPCR in DU145, MDA-MB-231, and WT-9-12 cells. DU145 cells were seeded into 12-well plates at ˜50% confluency (≈200,000 cells/well) and allowed to adhere for 12 h. After adhering, the cells were treated with compounds 2, 5, 6, or 7 (10, 100, and 500 nM) for 24 h. Total RNA was then harvested using a Zymo-Quick RNA Mini prep kit (Zymo Research) with DNase treatment according in the manufacturers protocol. Reverse transcription (RT) for mature miRNAs was done using the miScript II RT kit (Qiagen) with 200 ng of total RNA. To measure precursor and mRNA levels, RT was done using qScript (Quanta Bio) according to the manufacturers protocol on 1000 ng of total RNA. RT-qPCR was carried out on an Applied Biosystems 7900HT cycler under standard conditions (2 step PCR; 60° C. annealing/elongation, 95° C. melt) using the Power Sybr Master Mix (Applied Biosystems). […] Total RNA was extracted in a similar manner and subjected to RT-qPCR as described above. RT for precursor and mRNAs in MDA-MB-231 cells was done using the High Flex buffer in the miScript II RT kit.
Absolute quantification of pri-, pre-, and mature miRNAs. Transcripts of pre-miR-17, pre-miR-18a, and the corresponding 5p mature sequences were transcribed in vitro and purified as described above. Precursor miRNAs (1×10^14 copies) were reverse transcribed using QScript RT (Quanta bio) in a total volume of 40 μL. […]

Cellular uptake analysis = assay type: in vitro ADME, human; conditions: 5 μM, 24 h, DU-145 and MDA-MB-231
Experimental: Cellular uptake analysis. DU145 and MDA-MB-231 cells were seeded into a 96-well white clear bottom plate at 10,000 cells/well and allowed to adhere overnight. Once adhered, the cells were grown to ˜50% confluency and then treated with 2, 5, or 7 at 5 μM for 24 h while also leaving untreated wells for generation of a standard curve. This concentration was chosen to allow for adequate signal above noise. After 24 h, cells were lysed in 100 μL of RNA lysis buffer (Zymo Research) for 5 min. Compound 2, 5, or 7 were spiked into untreated samples at 100, 10, 1, 0.1, and 0.01 nM to create a standard curve of compound fluorescence. Using a Biotek FLX-800 fluorescence plate reader (excitation: 360/340; emission 460/440; sensitivity=90) the fluorescence of 2, 5, and 7 was measured. Concentrations were determined by extrapolating from the standard curves mentioned above.

pri-miR-17-92 cluster [2] = experiment: RT-qPCR of pri-, pre- and mature miRNAs in MDA-MB-231 cells; assay type: cell-based, human
Experimental: Absolute quantification of pri-, pre-, and mature miRNAs. Transcripts of pre-miR-17, pre-miR-18a, and the corresponding 5p mature sequences were transcribed in vitro and purified as described above. Precursor miRNAs (1×10^14 copies) were reverse transcribed using QScript RT (Quanta bio) in a total volume of 40 μL. Mature miRNAs (1×10^14 copies) were reverse transcribed using the miScript II RT Kit (Qiagen) in a total volume of 40 μL reaction. Serial dilutions of the RT reactions (1:10) were used to create a standard curve of copy number versus Ct which was used to calculate copy numbers of each transcript in DU-145 and MDA-MB-231 cells.

[3] = target: bulges 5′G_U/3′CUA, 5′GGU/3′C_A and 5′GAU/3′C_A; conditions: previous study, cited from earlier work

SMILES: Cc1c(N)nc([C@H](CC(N)=O)NC[C@H](N)C(N)=O)nc1C(=O)N[C@H](C(=O)N[C@H](C)[C@@H](O)[C@H](C)C(=O)N[C@H](C(=O)NCCc1nc(-c2nc(C(=O)NCCCNCCCCN)cs2)cs1)[C@@H](C)O)[C@@H](O[C@@H]1O[C@@H](CO)[C@@H](O)[C@H](O)[C@@H]1O[C@@H]1O[C@H](CO)[C@@H](O)[C@H](OC(N)=O)[C@@H]1O)c1cnc[nH]1 [Bleomycin A5]
- cleavage of plasmid DNA (plasmid DNA): significantly cleaved DNA

SMILES: CCCN(CC(=O)N(CCC)CC(=O)N(CCC)CC(=O)N(CC(=O)NCCOCCOCCOCCOc1ccc(/C=C2\SC(Nc3ccccc3)=C(C(=O)OCC)C2=O)cc1O)Cc1cn(CCCNC(=O)CCCOc2c(C(C)(C)C)cc(-c3nc4cc(-c5ccc(N6CCN(C)CC6)cc5)ccc4[nH]3)cc2C(C)(C)C)nn1)C(=O)CN(Cc1cn(CCCNC(=O)CCCOc2c(C(C)(C)C)cc(-c3nc4cc(-c5ccc(N6CCN(C)CC6)cc5)ccc4[nH]3)cc2C(C)(C)C)nn1)C(C)=O [Compound 7]
- mature and pre-miRNA levels of the pre-miRNAs that bind 2 (pri-miR-17-92 cluster [1]): reduced levels
- pri-miR-17/92 levels (pri-miR-17-92 cluster [1]): No effect
- cellular uptake (Cellular uptake analysis): taken up to a similar extent as 2
- decrease of pre-miR-17 levels (pri-miR-17-92 cluster [2]; MDA-MB-231, 7 at 500 nM): 31(±3) %
- decrease of pre-miR-18a levels (pri-miR-17-92 cluster [2]; MDA-MB-231, 7 at 500 nM): 19(±4) %
- decrease of pre-miR-20a levels (pri-miR-17-92 cluster [2]; MDA-MB-231, 7 at 500 nM): 36(±3) %
- pri-miR-17/92 levels (pri-miR-17-92 cluster [2]; MDA-MB-231, 7 at 500 nM): unchanged
- levels of mature miR-17, miR-18a and miR-20a (pri-miR-17-92 cluster [2]; MDA-MB-231, treatment with 7): reduced the levels of mature miR-17, miR-18a, and miR-20a dose dependently
- levels of the other three mature miRNAs in the cluster (pri-miR-17-92 cluster [2]; MDA-MB-231, treatment with 7): no effect

SMILES: CN1CCN(c2ccc(-c3ccc4nc(-c5cc(C(C)(C)C)c(OCCCC(=O)NCCCN=[N+]=[N-])c(C(C)(C)C)c5)[nH]c4c3)cc2)CC1 [Compound 1]
- Kd ([3]; bulges of pre-miR-17, -18a, -20a, read-out: Kd's of 1 for the three bulges): 30 to 40 µM
- binding of 1 to RNAs with bulges mutated to GC or AU base pairs [3]: No binding was observed
